According to patent publication US7323469B2, “7H-pyrrolo[2,3-d]pyrimidine derivatives” (Novartis AG, priority 2001, dated 2008):

Compound	melting point
CN1CCN(Cc2ccc(-c3cc4c(Nc5cccc(Cl)c5)ncnc4[nH]3)cc2)CC1.Cl.Cl	227 to 229 °C
CC1CN(Cc2ccc(-c3cc4c(Nc5ccc(F)c(Cl)c5)ncnc4[nH]3)cc2)CC(C)N1 (stereo not drawn) [Example 8, (3-Chloro-4-fluoro-phenyl)-{6-[4-(3,5-dimethyl-piperazin-1-ylmethyl)-phenyl]-7H-pyrrolo[2,3-d]pyrimidin-4-yl}-amine]	261 to 263 °C
Fc1ccc(Nc2ncnc3[nH]c(-c4ccc(CNCCN5CCOCC5)cc4)cc23)cc1Cl [Example 8b, (3-Chloro-4-fluoro-phenyl)-(6-{4-[(2-morpholin-4-yl-ethyl-amino)-methyl]-phenyl}-7H-pyrrolo[2,3-d]pyrimidin-4-yl)-amine]	224 to 226 °C
CCN(CC)CCNCc1ccc(-c2cc3c(Nc4ccc(F)c(Cl)c4)ncnc3[nH]2)cc1 [Example 8c, N-{4-[4-(3-Chloro-4-fluoro-phenylamino)-7H-pyrrolo[2,3-d]pyrimidin-6-yl]-benzyl}-N′,N′-diethyl-ethane-1,2-diamine]	229 to 231 °C
CC(C)NCc1ccc(-c2cc3c(Nc4ccc(F)c(Cl)c4)ncnc3[nH]2)cc1 [Example 8d, (3-Chloro-4-fluoro-phenyl)-{6-[4-(iso-propylamino-methyl)-phenyl]-7H-pyrrolo[2,3-d]pyrimidin-4-yl}-amine]	282 to 284 °C
C[C@@H](Nc1ncnc2[nH]c(-c3ccc(CNC(C)(C)C)cc3)cc12)c1ccccc1 [Example 16d, {6-[4-(tert-Butylamino-methyl)-phenyl]-7H-pyrrolo[2,3-d]pyrimidin-4-yl}-((R)-1-phenyl-ethyl)-amine]	> 300 °C
CC(C)NCc1ccc(-c2cc3c(N[C@H](C)c4ccccc4)ncnc3[nH]2)cc1 [Example 16e, {6-[4-(isopropylamino-methyl)-phenyl]-7H-pyrrolo[2,3-d]pyrimidin-4-yl}-((R)-1-phenyl-ethyl)-amine]	266 to 268 °C
c1ccc(COc2ccc(Nc3ncnc4[nH]c(-c5ccc(CN6CCCCC6)cc5)cc34)cc2)cc1 [Example 19, (4-Benzyloxy-phenyl)-[6-(4-piperidin-1-ylmethyl-phenyl)-7H-pyrrolo[2,3-d]pyrimidin-4-yl]-amine]	256 to 258 °C
c1ccc(COc2ccc(Nc3ncnc4[nH]c(-c5ccc(CN6CCCC6)cc5)cc34)cc2)cc1 [Example 23, (4-Benzyloxy-phenyl)-[6-(4-pyrrolidin-1-ylmethyl-phenyl)-7H-pyrrolo[2,3-d]pyrimidin-4-yl]-amine]	265 to 267 °C
CC1CN(Cc2ccc(-c3cc4c(Nc5ccc(OCc6ccccc6)cc5)ncnc4[nH]3)cc2)CC(C)N1 (stereo not drawn) [Example 24, (4-Benzyloxy-phenyl)-{6-[4-(3,5-dimethyl-piperazin-1-ylmethyl)-phenyl]-7H-pyrrolo[2,3-d]pyrimidin-4-yl}-amine]	269 to 271 °C
C[C@@H](Nc1ncnc2[nH]c(-c3cccc(CN(C)C)c3)cc12)c1ccccc1 [Example 25, [6-(3-Dimethylaminomethyl-phenyl)-7H-pyrrolo[2,3-d]pyrimidin-4-yl]-((R)-1-phenyl-ethyl)-amine]	108 to 110 °C
CCN1CCN(Cc2cccc(-c3cc4c(N[C@H](C)c5ccccc5)ncnc4[nH]3)c2)CC1 [Example 27, {6-[3-(4-Ethyl-piperazin-1-ylmethyl)-phenyl]-7H-pyrrolo[2,3-d]pyrimidin-4-yl}-((R)-1-phenyl-ethyl)-amine]	128 to 130 °C
C[C@@H](Nc1ncnc2[nH]c(-c3cccc(CN4CCCC4)c3)cc12)c1ccccc1 [Example 28, ((R)-1-Phenyl-ethyl)-[6-(3-pyrrolidin-1-ylmethyl-phenyl)-7H-pyrrolo[2,3-d]pyrimidin-4-yl]-amine]	90 to 92 °C
C[C@@H](Nc1ncnc2[nH]c(-c3cccc(CN4CCN(C)CC4)c3)cc12)c1ccccc1 [Example 29, {6-[3-(4-Methyl-piperazin-1-ylmethyl)-phenyl]-7H-pyrrolo[2,3-d]pyrimidin-4-yl}-((R)-1-phenyl-ethyl)-amine]	112 to 115 °C
C[C@@H](Nc1ncnc2[nH]c(-c3cccc(CN4CCCCC4)c3)cc12)c1ccccc1 [Example 30, ((R)-1-Phenyl-ethyl)-[6-(3-piperidin-1-ylmethyl-phenyl)-7H-pyrrolo[2,3-d]pyrimidin-4-yl]-amine]	108 to 110 °C
C[C@@H](Nc1ncnc2[nH]c(-c3cccc(CN4CCOCC4)c3)cc12)c1ccccc1 [Example 31, [6-(3-Morpholin-4-ylmethyl-phenyl)-7H-pyrrolo[2,3-d]pyrimidin-4-yl]-((R)-1-phenyl-ethyl)-amine]	242 to 243 °C
CC1CN(Cc2cccc(-c3cc4c(N[C@H](C)c5ccccc5)ncnc4[nH]3)c2)CC(C)N1 (stereo partly drawn) [Example 32, {6-[3-(3,5-Dimethyl-piperazin-1-ylmethyl)-phenyl]-7H-pyrrolo[2,3-d]pyrimidin-4-yl}-((R)-1-phenyl-ethyl)-amine]	128 to 130 °C
CN(C)Cc1cccc(-c2cc3c(Nc4ccc(F)c(Cl)c4)ncnc3[nH]2)c1 [Example 33, (3-Chloro-4-fluoro-phenyl)-[6-(3-dimethylaminomethyl-phenyl)-7H-pyrrolo[2,3-d]pyrimidin-4-yl]-amine]	218 to 220 °C
CCN1CCN(Cc2cccc(-c3cc4c(Nc5ccc(F)c(Cl)c5)ncnc4[nH]3)c2)CC1 [Example 35, (3-Chloro-4-fluoro-phenyl)-{6-[3-(4-ethyl-piperazin-1-ylmethyl)-phenyl]-7H-pyrrolo[2,3-d]pyrimidin-4-yl}-amine]	238 to 240 °C
CN1CCN(Cc2cccc(-c3cc4c(Nc5ccc(F)c(Cl)c5)ncnc4[nH]3)c2)CC1 [Example 37, (3-Chloro-4-fluoro-phenyl)-{6-[3-(4-methyl-piperazin-1-ylmethyl)-phenyl]-7H-pyrrolo[2,3-d]pyrimidin-4-yl}-amine]	221 to 223 °C
C[C@@H](Nc1ncnc2[nH]c(-c3ccc(CNC(=O)CN4CCCCC4)cc3)cc12)c1ccccc1 [Example 40, N-{4-[4-((R)-1-Phenyl-ethylamino)-7H-pyrrolo[2,3-d]pyrimidin-6-yl]-benzyl}-2-piperidin-1-yl-acetamide]	194 to 196 °C

The remaining lines, values ahead:

melting point	Compound
280 to 283 °C	CN(C)Cc1ccc(-c2cc3c(Nc4cccc(Cl)c4)ncnc3[nH]2)cc1.Cl
278 to 280 °C	Cl.Clc1cccc(Nc2ncnc3[nH]c(-c4ccc(CN5CCOCC5)cc4)cc23)c1
274 to 276 °C	CN(C)Cc1ccc(-c2cc3c(Nc4ccc(F)c(Cl)c4)ncnc3[nH]2)cc1 [Example 1, (3-Chloro-4-fluoro-phenyl)-[6-(4-dimethylaminomethyl-phenyl)-7H-pyrrolo[2,3-d]pyrimidin-4-yl]-amine]
248 to 250 °C	C[C@@H](Nc1ncnc2[nH]c(-c3ccc(CN4CCN(C)CC4)cc3)cc12)c1ccccc1 [Example 9, {6-[4-(4-Methyl-piperazin-1-ylmethyl)-phenyl]-7H-pyrrolo[2,3-d]pyrimidin-4-yl}-((R)-1-phenyl-ethyl)-amine]
208 to 210 °C	CC1CN(Cc2ccc(-c3cc4c(N[C@H](C)c5ccccc5)ncnc4[nH]3)cc2)CC(C)N1 (stereo partly drawn) [Example 16, {6-[4-(3,5-Dimethyl-piperazin-1-ylmethyl)-phenyl]-7H-pyrrolo[2,3-d]pyrimidin-4-yl}-((R)-1-phenyl-ethyl)-amine]
253 to 255 °C	C[C@@H](Nc1ncnc2[nH]c(-c3ccc(CNC4CCOCC4)cc3)cc12)c1ccccc1 [Example 16b, ((R)-1-Phenyl-ethyl)-(6-{4-[(tetrahydro-pyran-4-ylamino)-methyl]-phenyl}-7H-pyrrolo[2,3-d]pyrimidin-4-yl)-amine]
145 to 150 °C	CCN(CC)CCNCc1ccc(-c2cc3c(N[C@H](C)c4ccccc4)ncnc3[nH]2)cc1 [Example 16c, N,N-Diethyl-N′-{4-[4-((R)-1-phenyl-ethyl-amino)-7H-pyrrolo[2,3-d]pyrimidin-6-yl]-benzyl}-ethane-1,2-diamine]
236 to 238 °C	CCNCc1ccc(-c2cc3c(N[C@H](C)c4ccccc4)ncnc3[nH]2)cc1 [Example 16f, [6-(4-Ethylaminomethyl-phenyl)-7H-pyrrolo[2,3-d]pyrimidin-4-yl]-((R)-1-phenyl-ethyl)-amine]
272 to 274 °C	CN(C)Cc1ccc(-c2cc3c(Nc4ccc(OCc5ccccc5)cc4)ncnc3[nH]2)cc1 [Example 17, (4-Benzyloxy-phenyl)-[6-(4-dimethylaminomethyl-phenyl)-7H-pyrrolo[2,3-d]pyrimidin-4-yl]-amine]
272 to 274 °C	c1ccc(COc2ccc(Nc3ncnc4[nH]c(-c5ccc(CN6CCOCC6)cc5)cc34)cc2)cc1 [Example 20, (4-Benzyloxy-phenyl)-[6-(4-morpholin-4-ylmethyl-phenyl)-7H-pyrrolo[2,3-d]pyrimidin-4-yl]-amine]
271 to 273 °C	CCN(CC)Cc1ccc(-c2cc3c(Nc4ccc(OCc5ccccc5)cc4)ncnc3[nH]2)cc1 [Example 21, (4-Benzyloxy-phenyl)-[6-(4-diethylaminomethyl-phenyl)-7H-pyrrolo[2,3-d]pyrimidin-4-yl]-amine]
256 to 258 °C	CCN1CCN(Cc2ccc(-c3cc4c(Nc5ccc(OCc6ccccc6)cc5)ncnc4[nH]3)cc2)CC1 [Example 22, (4-Benzyloxy-phenyl)-{6-[4-(4-ethyl-piperazin-1-ylmethyl)-phenyl]-7H-pyrrolo[2,3-d]pyrimidin-4-yl}-amine]
238 to 240 °C	Fc1ccc(Nc2ncnc3[nH]c(-c4cccc(CN5CCCC5)c4)cc23)cc1Cl [Example 36, (3-Chloro-4-fluoro-phenyl)-[6-(3-pyrrolidin-1-ylmethyl-phenyl)-7H-pyrrolo[2,3-d]pyrimidin-4-yl]-amine]
233 to 235 °C	Fc1ccc(Nc2ncnc3[nH]c(-c4cccc(CN5CCCCC5)c4)cc23)cc1Cl [Example 38, (3-Chloro-4-fluoro-phenyl)-[6-(3-piperidin-1-ylmethyl-phenyl)-7H-pyrrolo[2,3-d]pyrimidin-4-yl]-amine]
290 to 292 °C	Fc1ccc(Nc2ncnc3[nH]c(-c4cccc(CN5CCOCC5)c4)cc23)cc1Cl [Example 39, (3-Chloro-4-fluoro-phenyl)-[6-(3-morpholin-4-ylmethyl-phenyl)-7H-pyrrolo[2,3-d]pyrimidin-4-yl]-amine]
